2 molecules from patent publication US20160025717A1, “HYPOSIALYLATION DISORDERS” (THE UNITED STATES OF AMERICA, AS REPRESENTED BY THE …, priority 2013, published 2016) can be followed below.

For the assay, the system named is GNE myopathy patients. As to the kind of experiment: Plasma T/ST ratio (T-antigen to monosialylated ST-antigen) by LC-MS/MS in treated GNE myopathy patients. In kind it is in vivo, human. The protocol:
The quantification of the T/ST ratio was carried out using the O-glycan quantification methods disclosed in Liu et al., Mol Genet Metab 106, 442-454 (2012). Briefly, O-linked glycans from human serum or plasma total glycoproteins were released by sodium hydroxide with sodium borohydrate and desalted by ion-exchange column and then permethylated before the quantity of T-antigen and monosialyl ST-antigen was measured using LC-MS/MS method. Plasma samples from 40 normal controls were used to establish the normal range for the T/ST ratio at <0.056. A cut-off of 0.06 was used to diagnose hyposialylation of O-linked protein glycosylation in human plasma or serum.
O-glycans were released from plasma glycoproteins and prepared for analysis essentially as described by Carlson (J Biol Chem 243: 616-626, 1968; Liu et al. Mol Genet Metab 2012, 106, 442-454 (2012)), with modifications as described. An internal standard (1250 pmol raffinose in 5 μL) was added to 10 μL of plasma and […] for a final volume of 100 μL. Next, 100 μL of freshly prepared 2M […] in 0.1M sodium hydroxide was added to denature the serum proteins and release the O-glycans; the mixture was incubated at 45° C. for 16 hours to ensure complete reaction. The reaction was neutralized by drop wise addition of 1.6 mL of a 0.25M acetic acid-methanol solution, and the O-glycans were extracted in methanol. Finally, the extracted glycans were desalted through ion-exchange AG 50W-X8 resin (Bio-Rad, Hercules, Calif.) following the manufacture's instruction and lyophilized overnight. The dried samples were dissolved in DMSO for permethylation.
Both N-glycans and O-glycans were permethylated as previously described with minor modification (Guillard et al. Clin Chem 57, 593-602 (2011)). Briefly, four NaOH pellets (approximately 375 mg) were crushed in 10 ml anhydrous DMSO, 0.5 μL water, 0.4 ml of this slurry and 0.1 ml CH3I were added to the dried glycans and the mixture was shaken vigorously for one hour. The mixture was extracted five times sequentially with a mixture of 200 μL water and 600 μL chloroform. […]

`CC(=O)N[C@@H]1C(O)C[C@](O)(C(=O)O)OC1[C@H](O)[C@H](O)CO` (stereo in doubt) [sialic acid, 5-N-acetylneuraminic acid]: the T/ST ratio is given as 0.7 (GNE myopathy patient NH00016, after three months without medication (after sialic acid)) and 0.05 (GNE myopathy patient NH00016, had received sialic acid one month before the test).

As for `CC(=O)N[C@H]1[C@@H](O)[C@H](O)[C@@H](CO)O[C@H]1O` [ManNAc, N-acetyl-D-mannosamine], the T/ST ratio entry (GNE myopathy patient SIA79 self-administering off-label ManNAc, cut-off 0.06) is given as “normal range”.
